The values that follow are results of earlier work, collected in patent US20210283219A1, “INHIBITION OF ALTERNATIVE COMPLEMENT PATHWAY FOR TREATMENT OF RETINAL ISCHEMIC INJURY AND GLAUCOMA” (Massachusetts Eye and Ear Infirmary, priority 2017, published 2021).

The target in the data set is complement factor B (Homo sapiens, UniProt P00751).
complement factor B, sequence (P00751 26-764, species assumed): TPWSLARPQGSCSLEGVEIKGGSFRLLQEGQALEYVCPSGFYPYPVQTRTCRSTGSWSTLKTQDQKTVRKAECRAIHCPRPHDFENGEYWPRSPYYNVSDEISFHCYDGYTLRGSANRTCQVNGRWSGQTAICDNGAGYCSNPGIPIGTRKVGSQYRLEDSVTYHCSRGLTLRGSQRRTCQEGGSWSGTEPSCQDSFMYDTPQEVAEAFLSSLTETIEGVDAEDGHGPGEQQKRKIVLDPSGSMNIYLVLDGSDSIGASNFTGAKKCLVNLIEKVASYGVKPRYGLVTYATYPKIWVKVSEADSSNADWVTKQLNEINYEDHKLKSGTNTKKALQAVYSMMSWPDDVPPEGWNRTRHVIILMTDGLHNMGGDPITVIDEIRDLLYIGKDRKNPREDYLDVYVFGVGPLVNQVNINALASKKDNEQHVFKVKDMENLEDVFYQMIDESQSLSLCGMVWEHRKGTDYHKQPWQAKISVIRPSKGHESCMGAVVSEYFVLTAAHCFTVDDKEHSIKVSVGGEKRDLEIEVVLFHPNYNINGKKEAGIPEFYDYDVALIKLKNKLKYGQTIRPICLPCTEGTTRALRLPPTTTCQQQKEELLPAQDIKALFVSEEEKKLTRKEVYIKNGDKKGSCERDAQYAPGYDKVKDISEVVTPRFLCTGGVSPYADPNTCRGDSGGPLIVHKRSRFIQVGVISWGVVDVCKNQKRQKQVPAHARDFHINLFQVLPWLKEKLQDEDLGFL

Consider “(2S)-2-[[(2S)-2 [[(2S)-2-[[(2S)-[[(2S)-2-[[(2S)-2-acetamido-5-(diaminomethylideneamino)pentanoyl]amino]-4-methylpentanoyl]amino]-4,4-dimethylpentanoyl]amino]-4-methylpentanoyl]amino]propanoyl]amino]-5-(diaminomethylideneamino)pentanoic acid [Compound 51]”, for which the “inhibition of complement factor B” value is recorded as “potently inhibits”.
